# Assay results as given in US7285567B2, “Halogenated benzamide derivatives” (Romark Laboratories, L.C., priority 2005, dated 2007).
# Where two headings read alike, the source gives them in different places.
# Columns and labels:
# [1] = test system: Human Rhinovirus Type 39 (HRV-39); test: Multiple cycle CPE inhibition assay on OH-I Hela cell monolayers; type: cell-based; settings: Rhinovirus A, HRV39, HRV-39, OH-Hela, 2% McCoys + Hepes Buffer
# Description: (§1) EC50 (μg/mL) values for 2-(acetolyloxy)-3-methyl-N-(5-bromo-2-thiazolyl)benzamide (RM4803), 2-(acetolyloxy)-3-methyl-N-(5-chloro-2-thiazolyl)benzamide (RM4804), and 2-(acetolyloxy)-3-methoxy-N-(5-bromo-2-thiazolyl)benzamide (RM4806), on Human Rhinovirus Type 39 (HRV-39), and H3N2 influenza virus, type A, using a multiple cycle CPE inhibition assay on OH-I Hela and Madin Darby Canine Kidney (MDCK) cell monolayers, respectively, were measured by microscopic and spectrophotometric methods. Pirodavir and Oseltamivir were included as positive controls.
# Sarcocystis neurona = test: Efficacy against intracellular protozoa
# Neospora spp. = test: Efficacy against intracellular protozoa
# Cryptosporidium spp. = test: Efficacy against intracellular protozoa
# [2] = test system: Paramyxovirus: Sendai virus; test: microbe, parasite or virus in culture; type: cell-based; settings: Respirovirus muris; Sendai virus in cell culture (Table 2)
# [3] = test system: H3N2 influenza virus, type A; test: Multiple cycle CPE inhibition assay on MDCK cell monolayers; type: cell-based; settings: 0% EMEM + Hepes + Trypsin
# Description: as §1
# Trichomonas vaginalis = test: Antiparasite test by conventional means; type: cell-based; settings: at concentrations of at least 50 μg/mL
# Description: (§2) The above identified compounds according to Formula (IV) were tested by conventional means against Trichomis vaginalis, Giardia Intestinalis, and Trypanosoma brucei.
# Giardia intestinalis = test: Antiparasite test by conventional means; type: cell-based; settings: at concentrations of at least 50 μg/mL
# Description: as §2
# Trypanosoma brucei = test: Antiparasite test by conventional means; type: cell-based; settings: at concentrations of at least 50 μg/mL
# Description: as §2
# clostridia = test: organism not typed; type: cell-based; settings: 48 h
# [4] = test system: anaerobic Gram-positive non-sporeforming rods; test: CLSI agar dilution MIC, anaerobic clinical isolates; type: cell-based; settings: Gram + rods (14 isolates), 48 h
# [5] = test system: anaerobic Gram positive cocci; test: as above; type: cell-based; settings: Gram + cocci (16 isolates), 48 h
# [6] = test system: anaerobic bacteria (all 142 isolates); test: CLSI agar dilution MIC, all anaerobic clinical isolates; type: cell-based; settings: for MIC50 / MIC90: All (142 isolates), agar dilution, 48 h; for Activity against anaerobic bacteria groups (summary in words): summary of MIC results
# Prevotella/Porphyromonas = test: CLSI agar dilution MIC, anaerobic clinical isolates; type: cell-based; settings: Prev/Porphy (26 isolates), 48 h
# Description: (§3) Methods. Recent clinical anaerobic isolates (2000 to date) comprised 40 B. fragilis group, 26 Prevotella/Porphyromonas, 28 fusobacteria, 16 anaerobic Gram positive cocci, 14 anaerobic Gram-positive non-sporeforming rods and 18 clostridia. CLSI agar dilution MIC methodology with enriched Brucella blood agar and inocula of 1×10^5 cfu/spot was used. Plates were incubated in an anaerobic glove box at 35° C. for 48 h. Results.
# B. fragilis group = test: as above; type: cell-based; settings: Bacteroides fragilis, B. fragilis gp (40 isolates), 48 h, 35° C.
# Description: as §3
# fusobacteria = test: as above; type: cell-based; settings: Fusobacteria (28 isolates), 48 h
# Description: as §3
# [7] = Cytotoxicity in AVA5 cells (neutral red dye uptake); type: cell-based, human; settings: human, 2-fold depression of neutral red dye uptake
# Description: (§4) Anti-Hepatitis C Virus (HCV) analyses and an assessment of cytotoxicity were performed in a 3-day assay in the HCV replicon-containing human hepatoblastoma cell line, AVA5 (Okuse, C., Rinaudo, J. A., Farrar, K., Wells, F. & Korba, B. E. Enhancement of antiviral activity against hepatitis C virus in vitro by interferon combination therapy. Antivir. Res. 65, 23-34 (2005)) as previously described (Blight, K. J., Kolykhalov, A. A. & Rice, C. M. Efficient initiation of HCV RNA replication in cell culture. Science 290, 1972-1974 (2000)).
# (§5) Values presented (±standard deviations [S.D.]) were calculated by linear regression analysis using data combined from all treated cultures. S.D. were calculated using the standard error of regression generated from the linear regression analyses (QuattroPro™). EC50, EC90=drug concentration at which a 2-fold, or a 10-fold depression of HCV RNA (relative to the average levels in untreated cultures), respectively, was observed. CC50=drug concentration at which a 2-fold depression of neutral red dye uptake was observed relative to the average levels in untreated cultures. Selectivity index=CC50/EC50.
# [8] = test system: hepatitis C virus (HCV) replicon; test: HCV replication in AVA5 replicon cell culture, 3-day assay; type: cell-based
# Description: as §4, §5
# [9] = Cytotoxicity in 2.2.15 cells (neutral red dye uptake); type: cell-based; settings: human, 2-fold depression of neutral red dye uptake
# Description: (§6) Anti-Hepatitis B Virus (HBV) analyses and an assessment of cytotoxicity were performed in a 9-day assay in the chronically-producing HBV human hepatoblastoma cell line, 2.2.15, as previously described (Korba, B. E. & Gerin, J. L. Use of a standardized cell culture assay to assess activities of nucleosides analogues against hepatitis B virus replication. Antivir. Res. 19, 55-70 (1992)).
# (§7) Values presented (±standard deviations [S.D.]) were calculated by linear regression analysis using data combined from all treated cultures. S.D. were calculated using the standard error of regression generated from linear regression analyses (QuattroPro™). EC50, EC90=drug concentration at which a 2-fold, or a 10-fold depression of HBV DNA (relative to the average levels in untreated cultures), respectively, was observed, CC50=drug concentration at which a 2-fold depression of neutral red dye uptake (relative to the average levels in untreated cultures) was observed, The EC90 values were used for the calculation of the Selectivity Indexes [S.I.] since at least a 3-fold depression of HBV levels is typically required to achieve statistical significance in this assay system. HBV R.I.=intracellular HBV DNA replication intermediate.
# Hepatitis B Virus (HBV) = test: HBV replication in 2.2.15 cell culture, 9-day assay; type: cell-based; settings: for EC50 / EC90: Hepatitis B virus
# Description: as §6, §7
# [10] = microscopic reading, read-out: EC50, Microscopic
# [11] = spectrophotometric reading, read-out: EC50, Spectrophotometer
# [12] = Clostridia (18 isolates), agar dilution, read-out: MIC50
smiles,measurement,setting,value
"CCOC(=O)c1ccc(OCCC2CCN(c3ccc(C)nn3)CC2)cc1 [Pirodavir, reference compound]",EC50,[1]; [10],0.007 µg/mL
same,EC50,[1]; [11],0.004 µg/mL
CC(=O)Oc1ccc(C)cc1C(=O)Nc1ncc(Br)s1 [RM-4821],efficacy against intracellular protozoa,Sarcocystis neurona,effective
same,efficacy against intracellular protozoa,Neospora spp.,effective
same,efficacy against intracellular protozoa,Cryptosporidium spp.,effective
same,EC50,[2],0.36 µM
"COc1cccc(C(=O)Nc2ncc(Br)s2)c1OC(C)=O [RM-4806, 2-(acetolyloxy)-3-methoxy-N-(5-bromo-2-thiazolyl)benzamide]",EC50,[3]; [10],0.46 µg/mL
same,EC50,[3]; [11],0.57 µg/mL
same,EC50,[1]; [10],5 µg/mL
same,EC50,[1]; [11],4 µg/mL
same,antiparasite activity,Trichomonas vaginalis,failed to exhibit antiparasite activitity
same,antiparasite activity,Giardia intestinalis,failed to exhibit antiparasite activitity
same,antiparasite activity,Trypanosoma brucei,failed to exhibit antiparasite activitity
"CC(=O)Oc1ccccc1C(=O)Nc1ncc(Br)s1 [RM-4820, 2-(acetolyloxy)-N-(5-bromo-2-thiazolyl)benzamide]",efficacy against intracellular protozoa,Sarcocystis neurona,effective
same,efficacy against intracellular protozoa,Neospora spp.,effective
same,efficacy against intracellular protozoa,Cryptosporidium spp.,effective
same,EC50,[2],0.34 µM
"CC(=O)Oc1ccccc1C(=O)Nc1ncc([N+](=O)[O-])s1 [Nitazoxanide, 2-(acetolyloxy)-N-(5-nitro-2-thiazolyl) benzamide]",MIC50,clostridia; [12],0.5 µg/mL
same,MIC50,[4],16 µg/mL
same,MIC90,[4],> 32 µg/mL
same,MIC50,[5],0.5 µg/mL
same,MIC90,[5],2 µg/mL
same,MIC50,[6],2 µg/mL
same,MIC90,[6],4 µg/mL
same,Activity against anaerobic bacteria groups (summary in words),[6],potent against all anaerobic bacteria groups except for Gram-positive anaerobic rods
same,MIC50,Prevotella/Porphyromonas,4 µg/mL
same,MIC90,Prevotella/Porphyromonas,8 µg/mL
same,MIC50,B. fragilis group,2 µg/mL
same,MIC90,B. fragilis group,4 µg/mL
same,MIC50,fusobacteria,1 µg/mL
CCC[C@@H]1C[C@@H](C(=O)N[C@@H]([C@H]2O[C@H](SC)[C@H](O)[C@@H](O)[C@H]2O)[C@H](C)Cl)N(C)C1 [Clindamycin],MIC50,clostridia,1 µg/mL
same,MIC90,clostridia,> 32 µg/mL
same,MIC50,[4],0.125 µg/mL
same,MIC90,[4],4 µg/mL
same,MIC50,[5],0.125 µg/mL
same,MIC90,[5],0.5 µg/mL
same,MIC50,[6],0.125 µg/mL
same,MIC90,[6],8 µg/mL
same,MIC50,Prevotella/Porphyromonas,≤ 0.015 µg/mL
same,MIC90,Prevotella/Porphyromonas,≤ 0.015 µg/mL
same,MIC50,B. fragilis group,2 µg/mL
same,MIC90,B. fragilis group,> 32 µg/mL
same,MIC50,fusobacteria,0.06 µg/mL
same,MIC90,fusobacteria,0.125 µg/mL
"CC(=O)Oc1c(C)cccc1C(=O)Nc1ncc(Cl)s1 [RM-4804, 2-(acetolyloxy)-3-methyl-N-(5-chloro-2-thiazolyl)benzamide]",EC50,[3]; [10],0.93 µg/mL
same,EC50,[3]; [11],0.57 µg/mL
same,EC50,[1]; [10],0.57 µg/mL
same,EC50,[1]; [11],0.32 µg/mL
same,antiparasite activity,Trichomonas vaginalis,failed to exhibit antiparasite activitity
same,antiparasite activity,Giardia intestinalis,failed to exhibit antiparasite activitity
same,antiparasite activity,Trypanosoma brucei,failed to exhibit antiparasite activitity
Cc1ncc([N+](=O)[O-])n1CCO [Metronidazole],MIC50,[4],> 16 µg/mL
same,MIC90,[4],> 16 µg/mL
same,MIC50,[5],0.5 µg/mL
same,MIC90,[5],1 µg/mL
same,MIC50,[6],1 µg/mL
same,MIC90,[6],2 µg/mL
same,MIC50,Prevotella/Porphyromonas,0.5 µg/mL
same,MIC50,B. fragilis group,1 µg/mL
same,MIC90,B. fragilis group,2 µg/mL
same,MIC50,fusobacteria,0.25 µg/mL
same,MIC90,fusobacteria,0.25 µg/mL
"NC(=O)c1ncn([C@@H]2O[C@H](CO)[C@@H](O)[C@H]2O)n1 [Ribavirin, reference compound]",CC50 at 3 day,[7],61 ± 2.9 µM
same,Selectivity Index,"[8]; AVA5 cells, CC50/EC50",0.6
same,EC50,"[8]; Hepatitis C virus, Ava5",94 ± 10 µM
same,EC90,"[8]; Hepatitis C virus, Ava5",> 100 µM
"CCOC(=O)C1=C[C@@H](OC(CC)CC)[C@H](NC(C)=O)[C@@H](N)C1 [Oseltamivir, reference compound]",EC50,[3]; [10],0.13 to 0.17 µg/mL
same,EC50,[3]; [11],0.08 to 0.36 µg/mL
O=C(Nc1ncc([N+](=O)[O-])s1)c1ccccc1O [Tizoxanide],MIC50,clostridia; [12],0.25 µg/mL
same,MIC50,[4],8 µg/mL
same,MIC90,[4],> 32 µg/mL
same,MIC50,[5],0.5 µg/mL
same,MIC90,[5],1 µg/mL
same,MIC50,[6],2 µg/mL
same,MIC90,[6],4 µg/mL
same,Activity against anaerobic bacteria groups (summary in words),[6],potent against all anaerobic bacteria groups except for Gram-positive anaerobic rods
same,MIC90,Prevotella/Porphyromonas,16 µg/mL
same,MIC50,B. fragilis group,2 µg/mL
same,MIC90,B. fragilis group,4 µg/mL
same,MIC50,fusobacteria,0.5 µg/mL
same,MIC90,fusobacteria,2 µg/mL
"Nc1ccn([C@@H]2CS[C@H](CO)O2)c(=O)n1 [Lamivudine, reference compound]",CC50 at 9 day,[9],2230 ± 76 µM
same,EC50,Hepatitis B Virus (HBV); read-out: Extracellular Virion DNA EC50,0.058 ± 0.006 µM
same,EC90,Hepatitis B Virus (HBV); read-out: Extracellular Virion DNA EC90,0.164 ± 0.015 µM
same,EC50,Hepatitis B Virus (HBV); read-out: Intracellular HBV R.I. EC50,0.172 ± 0.02 µM
same,EC90,Hepatitis B Virus (HBV); read-out: Intracellular HBV R.I. EC90,0.66 ± 0.068 µM
same,Selectivity Index R.I.,"Hepatitis B Virus (HBV); calculated with EC90 values (CC50/EC90), HBV R.I.",3377
same,Selectivity Index Virion,"Hepatitis B Virus (HBV); calculated with EC90 values (CC50/EC90), virion DNA",12959
CC(=O)Oc1cc(C)ccc1C(=O)Nc1ncc(Br)s1 [RM-4822],efficacy against intracellular protozoa,Sarcocystis neurona,effective
same,efficacy against intracellular protozoa,Neospora spp.,effective
same,efficacy against intracellular protozoa,Cryptosporidium spp.,effective
same,EC50,[2],0.36 µM
